Entries after “also recorded” stand apart in the source; their conditions may differ. Counter-ions that a name gives are not always drawn.
Tests used:
[1] = target: T1, NarX-RssA (Serratia marcescens, UniProt Q8GP19); assay: Cell-free iron-sensing NarX chimera, luciferase reporter; type: biochemical
T1 construct: All genes were; made in house; host or cells: cell-free expression in situ, myTXTL E. coli extract, with DMPC, POPC or DOPC vesicles

[2] = Dynamic light scattering of 100% POPC vesicles in the presence of ligands (liposome stability); type: physicochemical
[3] = system: cell-free protein synthesis; assay: Cell-free protein synthesis (myTXTL): NarX western blot band intensity and luminescence; type: biochemical, E. coli; details: increasing ligand concentration, NarX band intensity / luminescence (FIG. 7, FIG. 14)
Description: (§1) Protein expression was performed using the myTxTl system (Arbor Biosceinces). 5 μL reactions were assembled with 10 mM lipid, 0.1 nM plasmid encoding T7 RNA polymerase, 9.9 nM plasmids encoding NarX, NarL, and reporter gene (nano luciferase or GFP) in specified ratios, and various concentration of ligands. Cell-free reactions were allowed to progress at 30° C. for 16 hours. Luciferase luminescence was read using the NanoGlo luciferase system and GFP fluorescence (ex. 480 nm, em. 507 nm) was read using a Molecular Devices Spectra Max i3 plate reader. To calculate fold change, luminescence values in the presence of nitrate were divided by the luminescence values in the absence of nitrate for each replicate.
1 μL of cell-free reaction was diluted to 15 μL in Laemlli buffer and heated at 95° C. for 10 minutes. Samples were then loaded and run on a 12% Mini-PROTEAN TGX Precast Protein Gel (Bio-Rad) at 150 V for 90 minutes. Wet transfer was performed onto a PVDF membrane (Bio-Rad) for 45 min at 100 V. Membranes were then blocked for an hour at room temperature in 5% milk in TBST (pH 7.6:50 mM Tris, 150 mM NaCl, HCl to pH 7.6, 0.1% Tween) and incubated for 1 hour at room temperature or overnight at 4° C. with primary solution (anti-Flag (Sigma F1804) or anti-Myc (ab32), diluted 1:1000 in 5% milk in TBST). Primary antibody solution was decanted, and the membrane was washed three times for 5 minutes in TBST and then incubated in secondary solution at room temperature for 1 hour (HRP-anti-Mouse (CST 7076) diluted 1:3000 in 5% milk in TBST). Membranes were then washed in TBST and incubated with Clarity Western ECL Substrate (Bio-Rad) for 5 min. Blots were imaged using an Azure Biosystems c280 imager and band intensities were quantified with ImageJ.

[4] = target: T2, NarX (Escherichia coli, UniProt P0AFA2, T450I/V366A); assay: Cell-free NarX-L system encapsulated in giant unilamellar vesicles; type: biochemical, E. coli; details: 1 mM nitrate, GUVs of POPC:cholesterol with rhodamine lipid, 30° C. 16 hours, with RNase
T2 construct: All genes were; made in house; host or cells: cell-free expression in situ, myTXTL E. coli extract (Arbor Biosciences), with synthetic lipid vesicles
Text: Over the last decade, many promising cell-free systems have been developed, enabling the delivery and sensing of a wide array of ligands in non-ideal environments. Cell-free systems have been encapsulated and administered to mice (47), lyophilized and used in resource limited settings (6, 7), and integrated into wearable materials to sense environmental contaminants (8). Towards the goal of creating cell-mimetic particles which can sense environmental stimuli in complex environments, such as the body, we encapsulated our cell-free system into giant unilamellar vesicles using the emulsion transfer method (FIG. 5A). We encapsulated cell-free extract containing plasmids encoding NarX, NarL, and the downstream protein (luciferase or mEGFP) into membranes composed of 1 POPC: 1 cholesterol and a rhodamine conjugated lipid. We hypothesized that by encapsulating cell-free reaction components into vesicles, NarX could insert into membranes and initiate signaling in response to exogenously added nitrate. […]
For samples containing the luciferase plasmid, 0.5 μL of NanoGlo Luciferase substrate was added to the reaction, and reactions were read on a Molecular Devices Spectra Max i3 plate reader. […] Images were analyzed using the Nikon NIS software.

[5] = target: T2, NarX; assay: Lyophilized NarX-L reactions rehydrated in non-ideal media; type: biochemical, E. coli; details: 100 μM nitrate; rehydrated with Milli-Q water, lake water or FBS; 30° C.
Description: As a control, we flash froze reactions and allowed them to proceed without lyophilization. […] To remediate this, we lyophilized vesicles and reactions separately. When rehydrating reactions, we rehydrated vesicles with water and then mixed the rehydrated vesicles, lyophilized cell-free components, and rehydration media (water, lake water, or FBS) with or without 100 μM nitrate. We then allowed reactions to proceed at 30° C. […] To deploy biosensors out of the lab, one must understand how quickly they are able to sense a ligand. […] We furthermore envision that these systems could be leveraged to engineer targeted drug delivery systems or for point-of-use biosensing.
Cell-free reactions were prepared as above, omitting vesicles and ligand. Reactions and vesicles were then flash frozen and lyophilized overnight. Following lyophilization, vesicles were rehydrated in water and cell free reactions were rehydrated in various media, such as Mili-Q water, Lake Water from Lake Michigan, and 50% FBS containing either 100 μM nitrate or an equivalent volume of water. Vesicles and reactions were allowed to rehydrate for 30 minutes on ice. Finally, vesicles were added to each reaction to bring the total volume to 5 μL and reactions were allowed to proceed at 30° C. for 16 hours.

[6] = target: T2, NarX; assay: Cell-free NarX-L nitrate sensing, nanoluciferase reporter luminescence; type: biochemical, E. coli
Text: As a first step towards understanding how TCSs can be integrated into cell-free systems, we tested the functional expression of NarX and NarL. The analyte for this sensor, nitrate, is a known ground water contaminate (30), serves as a convenient input, and previous work has characterized and engineered NarL mutants and its cognate promoter (26), ensuring that downstream gene transcription is a result of cell-free expressed NarL. We assembled cell-free reactions containing the myTXTL system (31), three DNA templates, liposomes, and assessed the reactions in response to nitrate addition. Two templates contained genes for either NarX or a NarL mutant (26) under the control of T7 RNA polymerase. The third template served as a genetic reporter for TCS signaling and contained a reporter gene (nanoluciferase) under the control of a promoter to which NarL binds (32). Finally, we included 100 nm lipid vesicles composed of 1,2-dimyristoyl-sn-glycero-3-phosphocholine (DMPC) into which NarX could integrate (FIG. 1A). Upon addition of nitrate, NarX should phosphorylate NarL, which should then bind the reporter plasmid and induce downstream luciferase expression (FIG. 1A).
as §1

[7] = literature value, cited from earlier work
[8] = system: NarX-VanS Chimera; assay: Cell-free vancomycin-sensing NarX chimera, luciferase reporter; type: biochemical, Enterococcus faecium
[9] = plasmid concentrations which enabled functional NarX sensing
[10] = reporter plasmid reduced by 90%, DMPC, POPC, DOPC vesicles
[11] = 100% POPC vesicles in the presence of 100 μM ligand
[12] = 100% POPC vesicles in the presence of 1 mM ligand

T2 sequence (P0AFA2 other isoform, or with tags, fused parts or gaps V366A/T450I): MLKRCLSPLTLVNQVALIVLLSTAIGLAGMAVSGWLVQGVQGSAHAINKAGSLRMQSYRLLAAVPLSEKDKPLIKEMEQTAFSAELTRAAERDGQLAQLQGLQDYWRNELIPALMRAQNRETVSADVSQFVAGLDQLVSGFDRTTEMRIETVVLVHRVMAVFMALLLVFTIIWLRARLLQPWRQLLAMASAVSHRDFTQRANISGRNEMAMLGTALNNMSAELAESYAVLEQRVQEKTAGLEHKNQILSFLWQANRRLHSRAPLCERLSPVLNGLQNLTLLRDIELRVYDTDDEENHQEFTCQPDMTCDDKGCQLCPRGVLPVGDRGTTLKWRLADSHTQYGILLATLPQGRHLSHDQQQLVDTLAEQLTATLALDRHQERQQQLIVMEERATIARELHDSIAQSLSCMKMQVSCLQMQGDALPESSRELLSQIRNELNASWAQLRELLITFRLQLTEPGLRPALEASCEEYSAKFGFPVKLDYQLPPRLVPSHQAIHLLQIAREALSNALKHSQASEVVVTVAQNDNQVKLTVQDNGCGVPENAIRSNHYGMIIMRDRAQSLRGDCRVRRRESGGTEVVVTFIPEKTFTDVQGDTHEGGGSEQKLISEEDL

## [Cl][Fe]([Cl])[Cl] [Iron, iron (III) chloride anhydrous]
[1]; [9]
  sensor response to ligand (gene expression): no gene expression was observed
[1]; [10]
  sensor response to ligand (luciferase expression): functional sensors
[2]; [11]
  Diameter (nm): 118.62 nm
  P.D.I.: 0.135

## O=[N+]([O-])[O-].[Na+] [Nitrate, sodium nitrate]
[3]
  effect on cell-free protein expression: inhibit protein synthesis; also recorded: inhibits protein expression
[4]
  sensing of exogenously added nitrate by encapsulated sensor (microscopy and bulk plate reader): able to sense exogenous nitrate
[5]
  sensing of nitrate after lyophilization and rehydration: could sense 100 μM nitrate in all conditions
[6]; absence of vesicles (FIG. 1C)
  increase in luminescence in nitrate titration: 2 fold
[6]; all components present, DMPC vesicles (FIG. 1B)
  increase in luminescence compared to reactions run in the absence of nitrate: ~3 fold
[6]; nitrate sample vs water sample, p<0.03, n=2 (FIG. 18)
  time to differentiate a positive from a negative signal (luminescence over time): 6.5 h
[6]; nitrate titration
  nitrate concentration at which the cell-free system lost sensitivity: 10 mM
[6]; nitrate titration, cell-free system
  detection of nitrate at levels as low as: 10 µM
[6]; wild-type NarX, nitrate vs nickel (FIG. 4F)
  specificity of activation by ligand: specifically turn ‘on’
[2]; [12]
  Diameter (nm): 123.26 nm
  P.D.I.: 0.278

## CCCCCCCC/C=C\CCCCCCCC(=O)O[C@H](COC(=O)CCCCCCCCCCCCCCC)COP(=O)(O)OCCN [POPE, 1-palmitoyl-2-oleoyl-sn-glycero-3-phosphoethanolamine]
[7]; bending rigidity
  Kc (kBT) (6): 31.2 kBT
[7]; critical packing parameter
  CPP (4): 1.08
[7]
  2 Dc (A) (2): 32.6 A
  # of lipid contacts (5): 1.5
  Area (Å^2) (1): 56.6 Å^2
  C2:C2 (Å) (6): 30.67 Å
  DHH (Å) (2): 43.4 Å
  F (kcal/mol/Å) (6): 0.2041 kcal/mol/Å
  Ka (dyn/cm) (6): 260 dyn/cm
  Kc^PBM (6): 10.78
  Kg (10^−20 J) (6): 5.85 10^−20 J
  Kg/Kc (6): 0.44
  Kg^M (10^−20 J) (6): 0.06 10^−20 J
  Kg^M/Kc^M (6): 0.01
  Ktw (10^−20 J) (6): 2.36 10^−20 J
  Kθ (10^−20 J/nm^2) (6): 8.04 10^−20 J/nm^2
  Lateral Pressure (pN/nm^2) (3): 456 pN/nm^2
  Lipid Volume (A^3) (3): 1176.8 A^3
  P-C (Å) Head group thickness (6): 10.88 Å
  P:P (Å) (6): 41.55 Å
  Ro (Å) (6): −2220 Å
  γ chain (6): 0.188
  δ (Å) (6): 10.12 Å
[7]; membrane transition temperature, in °C (unit assumed)
  Tm (7): 25

## CN[C@H](CC(C)C)C(=O)N[C@H]1C(=O)N[C@@H](CC(N)=O)C(=O)N[C@H]2C(=O)N[C@H]3C(=O)N[C@H](C(=O)N[C@H](C(=O)O)c4cc(O)cc(O)c4-c4cc3ccc4O)[C@H](O)c3ccc(c(Cl)c3)Oc3cc2cc(c3O[C@@H]2O[C@H](CO)[C@@H](O)[C@H](O)[C@H]2O[C@H]2C[C@](C)(N)[C@H](O)[C@H](C)O2)Oc2ccc(cc2Cl)[C@H]1O [Vancomycin, vancomycin hydrochloride]
[8]; [9]
  sensor response to ligand (gene expression): no gene expression was observed
[8]; [10]
  sensor response to ligand (luciferase expression): did not induce an increase in luciferase expression
[2]; [12]
  Diameter (nm): 124.88 nm
  P.D.I.: 0.189

## O.O.O.O.O.O=S(=O)([O-])[O-].[Cu+2] [copper, copper (II) sulfate pentahydrate]
[3]
  effect on cell-free protein expression: inhibited cell-free protein expression
[3]; listed as Copper
  effect on cell-free protein expression: inhibits cell-free protein synthesis

— patent US20250137032A1, “TWO-COMPONENT SYSTEMS FOR USE IN CELL-FREE GENE EXPRESSION” (priority 2023, published 2025)
